# Experimental data: patent publication US11925638B2, “Pharmaceutical composition comprising diamino heterocyclic carboxamide compound as active ingredient” (ASTELLAS PHARMA INC., priority 2014, dated 2024)
# Experiments:
# [1] = test system: erlotinib-resistant HCC827 subcutaneous tumor; test: Anti-tumor evaluation (in vivo), erlotinib-resistant HCC827 subcutaneous cancer-bearing mouse model; settings: erlotinib 12.5 mg/kg/day and/or compound A 30 mg/kg/day, QD, po; for tumor volume on the starting day of administration: baseline, measured the day before start
# Text: HCC827 cells (EGFR mutation-positive lung cancer cell line) were subcutaneously implanted to a dorsal part of an immunodeficient mouse (CB17/Icr-Prkdcscid/CrlCrlj, male, 4-week-old (Charles River Laboratories Japan, Inc.)) to prepare HCC827 subcutaneous cancer-bearing mice.
# PC9 vec. cells = test: Proliferation inhibition (in vitro), PC9 vec. control cells, CellTiter-Glo; format: cell-based; settings: Homo sapiens, 96 h, 4 days culture
# Experimental: The obtained PC9/AXL cells and PC9 vec. cells were inoculated into a 384-well plate, respectively, using an RPMI 1640 medium (Sigma). On the same day, a DMSO solution of the test compound depending on the test concentration or DMSO alone was added thereto, followed by culturing at 37° C. for 4 days in the presence of 5% CO2. Thereafter, the number of cells was measured using a cell count reagent (CellTiter-Glo™ Luminescent Cell Viability Assay (Promega)).
# [2] = test system: phosphorylated AXL in AXL/PC9 cells; test: Western blot of phosphorylated AXL in AXL/PC9 cells; format: cell-based, human; settings: compound A at 100 nM, phospho-AXL antibody
SMILES,tumor volume on the starting day of administration [1] [mm^3],tumor decreasing effect [1],IC50 (PC9 vec. cells) [nM],AXL phosphorylation [2],tumor volume after 12 days [1] [mm^3]
"C#Cc1cccc(Nc2ncnc3cc(OCCOC)c(OCCOC)cc23)c1 [erlotinib, reference compound]",335.8,did not show a tumor decreasing effect,108,,
"CCc1nc(C(N)=O)c(Nc2ccc(N3CCC(N4CCN(C)CC4)CC3)c(OC)c2)nc1NC1CCOCC1 [compound A, 6-ethyl-3-({3-methoxy-4-[4-(4-methylpiperazin-1-yl)piperidin-1-yl]phenyl}amino)-5-(tetrahydro-2H-pyran-4-ylamino)pyrazine-2-carboxamide]",339.2,did not show a tumor decreasing effect,,completely inhibited,739.2
